The source of these data is PubChem BioAssay AID1918949 (Molecular Pharmacology Branch, DTP, NCI, 2023).

This assay concerns K24384-001-R-PDC complex spheroid viability. As to the kind of experiment: Anticancer human tumor K24384-001-R-PDC patient-derived pancreatic adenocarcinoma cell line growth inhibition. The following applies: for viability, T/C: stronger effect = lower value. Summed up: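 Complex spheroids of tumor cells with HUVEC and human MSCs, exposed to iadademstat combined with other agents. Each agent tested in half-log steps from near clinical Cmax (else 10 microM top), DMSO ≤0.25%.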

[1] abbreviates: curve of first compound, second compound 0.1 µM.
Setting [2] is: curve of first compound, second compound 0.316 µM.
Where [3] appears, read: curve of first compound, second compound 1 µM.
The mark [4] stands for this setting: curve of first compound, second compound 3.16 µM.
The mark [5] stands for this setting: curve of first compound, second compound 10 µM.
[6] abbreviates: second compound 0.1 µM, first compound 0.000316 µM.
Setting [7] is: second compound 0.1 µM, first compound 0.001 µM.
Where [8] appears, read: second compound 0.1 µM, first compound 0.00316 µM.
[9] abbreviates: second compound 0.1 µM, first compound 0.01 µM.
The mark [10] stands for this setting: second compound 0.1 µM, first compound 0.0316 µM.
Where [11] appears, read: second compound 0.1 µM, first compound 0.1 µM.
The mark [12] stands for this setting: second compound 0.316 µM, first compound 0.000316 µM.
[13] abbreviates: second compound 0.316 µM, first compound 0.001 µM.
[14] abbreviates: second compound 0.316 µM, first compound 0.00316 µM.
Where [15] appears, read: second compound 0.316 µM, first compound 0.01 µM.
The mark [16] stands for this setting: second compound 0.316 µM, first compound 0.0316 µM.
Where [17] appears, read: second compound 0.316 µM, first compound 0.1 µM.
Where [18] appears, read: second compound 1 µM, first compound 0.000316 µM.
Setting [19] is: second compound 1 µM, first compound 0.001 µM.
The mark [20] stands for this setting: second compound 1 µM, first compound 0.00316 µM.
Setting [21] is: second compound 1 µM, first compound 0.01 µM.
[22] abbreviates: second compound 1 µM, first compound 0.0316 µM.
Where [23] appears, read: second compound 1 µM, first compound 0.1 µM.
Setting [24] is: second compound 3.16 µM, first compound 0.000316 µM.
Where [25] appears, read: second compound 3.16 µM, first compound 0.001 µM.
Where [26] appears, read: second compound 3.16 µM, first compound 0.00316 µM.
Where [27] appears, read: second compound 3.16 µM, first compound 0.01 µM.
[28] abbreviates: second compound 3.16 µM, first compound 0.0316 µM.
Where [29] appears, read: second compound 3.16 µM, first compound 0.1 µM.
The mark [30] stands for this setting: second compound 10 µM, first compound 0.000316 µM.
The mark [31] stands for this setting: second compound 10 µM, first compound 0.001 µM.
The mark [32] stands for this setting: second compound 10 µM, first compound 0.00316 µM.
Where [33] appears, read: second compound 10 µM, first compound 0.01 µM.
Setting [34] is: second compound 10 µM, first compound 0.0316 µM.
Setting [35] is: second compound 10 µM, first compound 0.1 µM.

pIC50: −log10 of the molar value. “And” between values parts separate entries of the source, which are not always exact repeats. Identical values can stand only once. Bounds are passed on as bounds.

The pIC50 is the IC50 on a negative log10 scale, so that one unit is a factor of ten. Broadly, the viability, T/C is the result in the treated group divided by that in the control group, in per cent.
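Further: spheroids exposed to agents for seven days before luminescence viability reading.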
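Wherever viability, T/C is given: 100% = DMSO vehicle control viability.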

Turning to `CC(C)CC(NC(=O)C(Cc1ccccc1)NC(=O)c1cnccn1)B(O)O` (stereo not drawn) + NC1CCC(NC2CC2c2ccccc2)CC1, the pIC50 runs as follows: under setting [1], 9.33; under setting [2], 9.32; under setting [3], 9.42; under setting [4], 9.46; under setting [5], 9.37. In addition, the viability, T/C by setting is: under setting [6], 74%; under setting [7], 1.78%; under setting [8], 0.23%; under setting [9], 0.12%; under setting [10], 0.2%; under setting [11], 0.23%. Moreover, the viability, T/C is 76.5% under setting [12]; 1.74% under setting [13]; 0.26% under setting [14]; 0.08% under setting [15]; 0.76% under setting [16]; 1.15% under setting [17]. Also, the viability, T/C reads like this: under setting [18], 59.1%; under setting [19], 2.07%; under setting [20], 0.15%; under setting [21], 0.08%; under setting [22], 0.09%; under setting [23], 0.19%. Further, the viability, T/C is 53.9% under setting [24]; 1.45% under setting [25]; 0.27% under setting [26]; 0.11% under setting [27]; 0.12% under setting [28]; 0.18% under setting [29]. In addition, the viability, T/C is 64.1% under setting [30]; 8.36% under setting [31]; 2.45% under setting [32]; 0.22% under setting [33]; 0.21% under setting [34]; 0.3% under setting [35].
For `COc1cc(Nc2ncc3c(n2)-c2ccc(Cl)cc2C(c2c(F)cccc2OC)=NC3)ccc1C(=O)O`, the viability, T/C by setting is: (compound 0.00316 µM) 106% and 74.5%; (compound 0.01 µM) 94.8% and 78.3%; (compound 0.0316 µM) 85.9% and 62.4%; (compound 0.1 µM) 69.7% and 63.6%; (compound 0.316 µM) 79.4% and 69.7%; (compound 1 µM) 87.7% and 70.3%. For the same compound, the pIC50 (curve of compound) is below 6.00.
In the case of `Nc1ncn(C2CC(O)C(CO)O2)c(=O)n1` (stereo not drawn), the viability, T/C (compound 0.00316 µM) is 98.6% and 96.8%; the viability, T/C (compound 0.01 µM) was 88.9% and 94.9%; the viability, T/C (compound 0.0316 µM) is 93% and 100%; the viability, T/C (compound 0.1 µM) was 84.2% and 77.6%; the viability, T/C (compound 0.316 µM) was 75.6% and 75.5%; the viability, T/C (compound 1 µM) is 75% and 87.2%. Besides, the pIC50 (curve of compound) is below 6.00.
Turning to `CC1COCCN1c1cc(C2(S(C)(=N)=O)CC2)nc(-c2ccnc3[nH]ccc23)n1` (stereo not drawn) + NC1CCC(NC2CC2c2ccccc2)CC1, the pIC50 is, setting by setting: under setting [1], 5.61; under setting [2], 5.79; under setting [3], 5.63; under setting [4], 5.74; under setting [5], 5.77. The viability, T/C is 82.9% under setting [10]; 79.5% under setting [11]; 91.1% (second compound 0.1 µM, first compound 0.316 µM); 71.5% (second compound 0.1 µM, first compound 1 µM); 43.2% (second compound 0.1 µM, first compound 3.16 µM); 44.5% (second compound 0.1 µM, first compound 10 µM). For the same compound, the viability, T/C was 95.2% under setting [16]; 90.1% under setting [17]; 107% (second compound 0.316 µM, first compound 0.316 µM); 57.5% (second compound 0.316 µM, first compound 1 µM); 45.5% (second compound 0.316 µM, first compound 3.16 µM); 34.3% (second compound 0.316 µM, first compound 10 µM). For the same compound, the viability, T/C runs as follows: under setting [22], 84.4%; under setting [23], 88%; (second compound 1 µM, first compound 0.316 µM) 84.3%; (second compound 1 µM, first compound 1 µM) 67%; (second compound 1 µM, first compound 3.16 µM) 44%; (second compound 1 µM, first compound 10 µM) 38.9%. The viability, T/C is, setting by setting: under setting [28], 80.6%; under setting [29], 97.6%; (second compound 3.16 µM, first compound 0.316 µM) 82.9%; (second compound 3.16 µM, first compound 1 µM) 60.4%; (second compound 3.16 µM, first compound 3.16 µM) 41.8%; (second compound 3.16 µM, first compound 10 µM) 34.4%. The viability, T/C is, setting by setting: under setting [34], 79.6%; under setting [35], 74%; (second compound 10 µM, first compound 0.316 µM) 76.8%; (second compound 10 µM, first compound 1 µM) 60.4%; (second compound 10 µM, first compound 3.16 µM) 36.9%; (second compound 10 µM, first compound 10 µM) 39%.
In the case of `Nc1ccn(C2OC(CO)C(O)C2(F)F)c(=O)n1` (stereo not drawn), the viability, T/C is 97.6% (compound 0.000949 µM); 89% and 86.8% (compound 0.003 µM); 73% and 73.2% (compound 0.00949 µM); 60.7% and 53.4% (compound 0.03 µM); 44% and 42.3% (compound 0.0949 µM); 33.9% and 28.2% (compound 0.3 µM). Moreover, under “curve of compound”, the pIC50 is 7.20 and 7.34.
On to `CC(C)CC(NC(=O)CNC(=O)c1cc(Cl)ccc1Cl)B1OC(=O)CC(CC(=O)O)(C(=O)O)O1` (stereo not drawn) + NC1CCC(NC2CC2c2ccccc2)CC1, for which the pIC50 was 8.12 under setting [1]; 8.24 under setting [2]; 8.22 under setting [3]; 8.25 under setting [4]; 8.30 under setting [5]. The viability, T/C under setting [6] is 100%; the viability, T/C under setting [7] is 90.2%; the viability, T/C under setting [8] was 82.7%; the viability, T/C under setting [9] is 40.4%; the viability, T/C under setting [10] is 3.3%; the viability, T/C under setting [11] is 0.72%. For the same compound, the viability, T/C under setting [12] was 97.4%; the viability, T/C under setting [13] is 91.9%; the viability, T/C under setting [14] was 75.4%; the viability, T/C under setting [15] is 27.2%; the viability, T/C under setting [16] was 3.1%; the viability, T/C under setting [17] was 0.77%. Further, the viability, T/C under setting [18] was 89.9%; the viability, T/C under setting [19] was 87.7%; the viability, T/C under setting [20] is 75.1%; the viability, T/C under setting [21] was 30.9%; the viability, T/C under setting [22] was 4.13%; the viability, T/C under setting [23] is 0.7%. The viability, T/C under setting [24] was 92.1%; the viability, T/C under setting [25] is 78.3%; the viability, T/C under setting [26] is 74.1%; the viability, T/C under setting [27] was 26.5%; the viability, T/C under setting [28] was 2.82%; the viability, T/C under setting [29] was 0.68%. Further, the viability, T/C under setting [30] was 92.9%; the viability, T/C under setting [31] is 75.7%; the viability, T/C under setting [32] was 69.8%; the viability, T/C under setting [33] is 22.8%; the viability, T/C under setting [34] was 2.54%; the viability, T/C under setting [35] is 0.55%.
For the compound `Cn1ncnc1C1c2n[nH]c(=O)c3cc(F)cc(c23)NC1c1ccc(F)cc1` (stereo not drawn), the viability, T/C reads like this: (compound 0.000316 µM) 108% and 99.6%; (compound 0.001 µM) 105% and 115%; (compound 0.00316 µM) 87.1% and 102%; (compound 0.01 µM) 93.5% and 95%; (compound 0.0316 µM) 90.6% and 95.1%; (compound 0.1 µM) 80.4% and 76.9%. For the same compound, the pIC50 (curve of compound) was below 7.00.
